Assay results from patent publication US8318781B2, “G-protein-conjugated receptor agonist” (Japan Science and Technology Agency, priority 2007, dated 2012).

Legend:
human GPR40 (hGPR40) = biological target: T1, human GPR40 (hGPR40) (Homo sapiens, UniProt O14842); assay: ERK assay, screening for GPR40 ligands in cell line TXGPR40; type: cell-based; conditions: TXGPR40 cells, class relative to LA; for ERK/GPR40 100 μM: ligand 100 μM
T1 construct: expressed in transfected cells; doxycycline-inducible expression vector
T1 sequence (O14842 whole entry): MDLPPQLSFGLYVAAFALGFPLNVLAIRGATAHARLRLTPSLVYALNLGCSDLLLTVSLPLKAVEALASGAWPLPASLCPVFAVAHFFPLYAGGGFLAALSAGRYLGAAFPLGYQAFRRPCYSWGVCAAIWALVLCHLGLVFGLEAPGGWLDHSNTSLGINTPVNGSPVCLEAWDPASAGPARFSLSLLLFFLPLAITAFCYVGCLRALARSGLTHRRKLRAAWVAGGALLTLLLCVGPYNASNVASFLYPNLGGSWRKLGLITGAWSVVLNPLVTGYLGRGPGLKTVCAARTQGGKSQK

human GPR120 (hGPR120) = biological target: T2, human GPR120 (hGPR120) (Homo sapiens, UniProt Q5NUL3); assay: ERK assay, screening for GPR120 ligands in cell line TXGPR120;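 for ERK/GPR120 10 μM: signals normalized between DMSO and PMA controls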; type: cell-based; conditions: for selectivity for GPR120 in ERK assay (in words): GPR120 versus GPR40; for ERK activation for GPR120 (in words) / ERK/GPR120 10 μM / ERK/GPR120 100 μM: TXGPR120 cells; for ERK activation for GPR120 (in words): FIGS. 5-8; for ERK/GPR120 10 μM: ligand 10 μM; for ERK/GPR120 10 μM / ERK/GPR120 100 μM: class relative to LA; for ERK/GPR120 100 μM: ligand 100 μM
T2 construct: expressed in transfected cells; doxycycline-inducible expression vector
T2 sequence (Q5NUL3 1-361): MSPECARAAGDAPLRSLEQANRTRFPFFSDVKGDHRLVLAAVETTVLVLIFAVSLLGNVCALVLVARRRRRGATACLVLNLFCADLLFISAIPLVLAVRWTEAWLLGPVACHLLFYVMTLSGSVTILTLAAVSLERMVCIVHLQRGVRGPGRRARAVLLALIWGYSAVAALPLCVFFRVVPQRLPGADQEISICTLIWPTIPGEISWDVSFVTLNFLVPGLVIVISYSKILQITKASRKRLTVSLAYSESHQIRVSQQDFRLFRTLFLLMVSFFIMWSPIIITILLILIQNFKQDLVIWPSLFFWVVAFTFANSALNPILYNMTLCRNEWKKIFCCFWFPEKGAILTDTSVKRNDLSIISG

ERK/GPR40 100 μM (human GPR40 (hGPR40))	selectivity for GPR120 in ERK assay (in words) (human GPR120 (hGPR120))	ERK activation for GPR120 (in words) (human GPR120 (hGPR120))	ERK/GPR120 10 μM (human GPR120 (hGPR120))	ERK/GPR120 100 μM (human GPR120 (hGPR120))	ERK/GPR40 10 μM (human GPR40 (hGPR40); ligand 10 μM)	Structure (SMILES)
++ (++ denotes 50 to 100% of LA)	selective for GRP120	strongly activate ERK	+++ (+++ denotes a higher value than LA)	+++ (+++ denotes a higher value than LA)		O=C(O)CCCc1ccc(OCCN(c2ccccc2)c2nccs2)cc1 [NCG46]
++ (++ denotes 50 to 100% of LA)	selective for GRP120	strongly activate ERK	+++ (+++ denotes a higher value than LA)	+++ (+++ denotes a higher value than LA)	+ (+ denotes 0 to 100% of LA)	CN(C)c1ccc(N(CCOc2ccc(CCCC(=O)O)cc2)c2ccccn2)cc1 [NCG54]
